Patent publication US20150105252A1, “SUBSTITUTED PYRAZOLES AS HERBICIDES” (E I DU PONT DE NEMOURS AND COMPANY, priority 2013, published 2015)

Key:
[1] = test system: ducksalad; assay: Test B flood; assay type: in vivo, Heteranthera limosa; settings: 250 g ai/ha, visual rating on 0 to 100 scale (0 no effect, 100 complete control), 13 to 15 days
Summary of the method: (§1)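 Visual ratings (0 = no effect, 100 = complete control) versus untreated controls were taken 13–15 days after treatment of greenhouse plants. Treatment was added to paddy water held at 3 cm depth on 2-leaf-stage seedlings.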

[2] = test system: foxtail, giant; assay: Test C preemergence; assay type: in vivo, Setaria faberii; settings: preemergence; for Plant response rating, Foxtail, Giant: 125 g ai/ha, scale 0 to 100, 0 = no effect, 100 = complete control
Summary of the method: (§2)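 Scores of 0 (no effect) to 100 (complete control) were assigned by eye after 13–15 days, comparing treated pots with controls. Soil-applied (preemergence) treatments went onto seeds in loam and sand; foliar (postemergence) treatments onto 1- to 4-leaf plants in peat medium.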

[3] = test system: ragweed; assay: Test C preemergence; assay type: in vivo, Ambrosia elation; settings: preemergence; for Plant response rating, Ragweed: 125 g ai/ha, scale 0 to 100, 0 = no effect, 100 = complete control
Summary of the method: as §2

[4] = test system: morningglory; assay: Test A postemergence; assay type: in vivo, Ipomoea spp.; settings: Postemergence
Summary of the method: (§3)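 Visual injury rating, 0–100 (0 no effect, 100 complete control), vs untreated controls ~10 days after treatment in greenhouse. Pre: directed soil spray on seeded loam/sand. Post: 2–10 cm plants, 1–2 leaf stage. Formulation: non-phytotoxic solvent mix + surfactant.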

[5] = test system: crabgrass, large; assay: Test A preemergence; assay type: in vivo, Digitaria sanguinalis; settings: preemergence; for Crabgrass, Large plant response rating (0 to 100 scale): 125 g ai/ha, visual injury approx. 10 days after treatment; for Crabgrass, Large plant response rating: 500 g ai/ha, visual injury after approx. 10 days, 0 to 100 scale (0 no effect, 100 complete control)
Summary of the method: as §3

[6] = test system: corn; assay: Test C preemergence; assay type: in vivo, Zea mays; settings: preemergence; for Plant response rating, Corn: 125 g ai/ha, scale 0 to 100, 0 = no effect, 100 = complete control
Summary of the method: as §2

[7] = test system: corn; assay: Test A postemergence; assay type: in vivo, Zea mays
Summary of the method: as §3

[8] = test system: morningglory; assay: Test A preemergence; assay type: in vivo, Ipomoea spp.; settings: preemergence; for Morningglory plant response rating (0 to 100 scale): 125 g ai/ha, visual injury approx. 10 days after treatment; for Morningglory plant response rating: 500 g ai/ha, visual injury after approx. 10 days, 0 to 100 scale (0 no effect, 100 complete control)
Summary of the method: as §3

[9] = test system: waterhemp; assay: Test C preemergence; assay type: in vivo, Amaranthus rudis; settings: preemergence; for Plant response rating, Waterhemp: 125 g ai/ha, scale 0 to 100, 0 = no effect, 100 = complete control
Summary of the method: as §2

[10] = test system: pigweed; assay: Test A preemergence; assay type: in vivo, Amaranthus retroflexus; settings: preemergence; for Pigweed plant response rating (0 to 100 scale): 125 g ai/ha, visual injury approx. 10 days after treatment; for Pigweed plant response rating: 500 g ai/ha, visual injury after approx. 10 days, 0 to 100 scale (0 no effect, 100 complete control)
Summary of the method: as §3

[11] = test system: pigweed; assay: Test A postemergence; assay type: in vivo, Amaranthus retroflexus; settings: Postemergence
Summary of the method: as §3

[12] = test system: blackgrass; assay: Test C preemergence; assay type: in vivo, Alopecurus myosuroides; settings: preemergence; for Plant response rating, Blackgrass: 125 g ai/ha, scale 0 to 100, 0 = no effect, 100 = complete control
Summary of the method: as §2

[13] = test system: wheat; assay: Test A postemergence; assay type: in vivo, Triticum aestivum; settings: Postemergence
Summary of the method: as §3

[14] = test system: rice; assay: Test B flood; assay type: in vivo, Oryza sativa; settings: 250 g ai/ha, visual rating on 0 to 100 scale (0 no effect, 100 complete control), 13 to 15 days
Summary of the method: as §1

[15] = test system: ryegrass, Italian; assay: Test C preemergence; assay type: in vivo, Lolium multiflorum; settings: preemergence; for Plant response rating, Ryegrass, Italian: 125 g ai/ha, scale 0 to 100, 0 = no effect, 100 = complete control
Summary of the method: as §2

[16] = 31 g ai/ha, visual rating, scale 0 to 100 (0 no effect, 100 complete control), 13 to 15 days
[17] = 62 g ai/ha, scale 0 to 100 (0 no effect, 100 complete control), 13 to 15 days
[18] = 250 g ai/ha, scale 0 to 100, 0 is no effect, 100 is complete control
[19] = 125 g ai/ha, 0 to 100 scale, 0 no effect, 100 complete control
[20] = 500 g ai/ha, 0 to 100 scale (0 no effect, 100 complete control)
[21] = Postemergence, 500 g ai/ha, 0 to 100 scale (0 no effect, 100 complete control)
[22] = postemergence, 125 g ai/ha, about 10 days, visual rating on 0 to 100 scale (0 no effect, 100 complete control)

SMILES | Plant response rating, Ducksalad [1] | Foxtail, Giant plant response rating [2, 16] | Foxtail, Giant plant response rating [2, 17] | Plant response rating, Foxtail, Giant ([2]; 13 to 15 days) | Foxtail, Giant plant response rating [2, 18] | Ragweed plant response rating [3, 17] | Plant response rating, Ragweed ([3]; 13 to 15 days) | Ragweed plant response rating [3, 18] | Morningglory plant response rating [4, 19] | Morningglory plant response rating [4, 20] | Crabgrass, Large plant response rating (0 to 100 scale) [5] | Crabgrass, Large plant response rating [5] | Corn plant response rating [6, 16] | Corn plant response rating [6, 17] | Plant response rating, Corn ([6]; 13 to 15 days) | Corn plant response rating [6, 18] | Corn plant response rating [7, 21] | Corn plant response rating [7, 22] | Morningglory plant response rating (0 to 100 scale) [8] | Morningglory plant response rating [8] | other results
CCOc1cc(C(=O)NC(C)C)nn1Cc1ccnc(C(F)(F)F)c1 [Compound 188] | 90 | 100 | 100 | 100 | 100 | 95 | 100 | 98 | 70 | 100 | 100 | 100 | 55 | 85 | 98 | 98 | 100 | 90 | 100 | 100 | Ragweed plant response rating [3, 16]: 75; Waterhemp plant response rating [9, 16]: 100; Waterhemp plant response rating [9, 17]: 100; Plant response rating, Waterhemp ([9]; 13 to 15 days): 100; Waterhemp plant response rating [9, 18]: 100; Pigweed plant response rating (0 to 100 scale) [10]: 100; Pigweed plant response rating [10]: 100; Pigweed plant response rating [11, 19]: 100; Pigweed plant response rating [11, 20]: 100; Blackgrass plant response rating [12, 16]: 90; Blackgrass plant response rating [12, 17]: 90; Plant response rating, Blackgrass ([12]; 13 to 15 days): 90; Blackgrass plant response rating [12, 18]: 90; Wheat plant response rating [13, 19]: 80; Wheat plant response rating [13, 20]: 90; Plant response rating, Rice [14]: 60; Ryegrass, Italian plant response rating [15, 16]: 70; Ryegrass, Italian plant response rating [15, 17]: 90; Plant response rating, Ryegrass, Italian ([15]; 13 to 15 days): 90; Ryegrass, Italian plant response rating [15, 18]: 90
CCOc1cc(C(=O)NC2CC2)nn1Cc1ccnc(C(F)(F)F)c1 [Compound 189] | 85 | 100 | 100 | 100 | 100 | 98 | 100 | 98 | 90 | 100 | 100 | 100 | 5 | 40 | 85 | 98 | 100 | 80 | 100 | 100 | Ragweed plant response rating [3, 16]: 85; Waterhemp plant response rating [9, 16]: 100; Waterhemp plant response rating [9, 17]: 100; Plant response rating, Waterhemp ([9]; 13 to 15 days): 100; Waterhemp plant response rating [9, 18]: 100; Pigweed plant response rating (0 to 100 scale) [10]: 0; Pigweed plant response rating [10]: 0; Pigweed plant response rating [11, 19]: 80; Pigweed plant response rating [11, 20]: 100; Blackgrass plant response rating [12, 16]: 90; Blackgrass plant response rating [12, 17]: 90; Plant response rating, Blackgrass ([12]; 13 to 15 days): 90; Blackgrass plant response rating [12, 18]: 90; Wheat plant response rating [13, 19]: 80; Wheat plant response rating [13, 20]: 90; Plant response rating, Rice [14]: 45; Ryegrass, Italian plant response rating [15, 16]: 40; Ryegrass, Italian plant response rating [15, 17]: 90; Plant response rating, Ryegrass, Italian ([15]; 13 to 15 days): 90; Ryegrass, Italian plant response rating [15, 18]: 90
CCONC(=O)c1cc(OCC)n(Cc2ccnc(C(F)(F)F)c2)n1 [Compound 195] | 95 | 65 | 85 | 100 | 100 | 85 | 90 | 98 | 70 | 100 | 100 | 100 | 25 | 45 | 70 | 95 | 90 | 80 | 90 | 100 | Waterhemp plant response rating [9, 17]: 100; Plant response rating, Waterhemp ([9]; 13 to 15 days): 100; Waterhemp plant response rating [9, 18]: 100; Pigweed plant response rating (0 to 100 scale) [10]: 100; Pigweed plant response rating [10]: 100; Pigweed plant response rating [11, 19]: 100; Pigweed plant response rating [11, 20]: 100; Blackgrass plant response rating [12, 16]: 5; Blackgrass plant response rating [12, 17]: 90; Plant response rating, Blackgrass ([12]; 13 to 15 days): 90; Blackgrass plant response rating [12, 18]: 90; Wheat plant response rating [13, 19]: 90; Wheat plant response rating [13, 20]: 90; Plant response rating, Rice [14]: 10; Ryegrass, Italian plant response rating [15, 16]: 10; Ryegrass, Italian plant response rating [15, 17]: 60; Plant response rating, Ryegrass, Italian ([15]; 13 to 15 days): 90; Ryegrass, Italian plant response rating [15, 18]: 90
